Data on 8 molecules can be found in patent US9206405B2, “Glycosyl hydrolase with beta-xylosidase and beta-glucosidase activities and uses thereof” (Institute of Materia Medica, Chinese Academy of Medical …, priority 2010, dated 2015).

Molecules are shown by their SMILES.

In assay [1] the test system is LXYL-P1 (or P1) protein. As to the kind of experiment: Specificity test on different glycoside (chromogenic) substrates hydrolysis by purified LXYL-P1. It counts as biochemical, Lentinula edodes M95.33. The following applies: 20 min; for Relative activity (% control): control = PNP-Xyl; for Relative activity (% control) / OD405 value: 5 mM substrate, pH 5.0, 50° C., purified P1; for OD405 value: release of p-nitrophenol at 405 nm; for hydrolysis of chromogenic substrate by P1 protein (in words): 50° C., pH 5.0. Here is the method: In addition to the β-xylosidase activity, especially the activity of hydrolyzing 7-xylosyltaxanes, the specificity of the LXYL-P1 (or P1) on other glycoside substrates was also tested by employing four chromogenic substrates: p-nitrophenyl-β-D-glucopyranoside (PNP-Glc), p-nitrophenyl-β-D-galactopyranoside (PNP-Gal), p-nitrophenyl-α-L-arabinopyrano side (PNP-Ara), and p-Nitrophenyl-β-D-xylopyranoside (PNP-Xyl, serving as a control). Each of the chromogenic substrates was prepared in 50 mM acetate buffer to obtain 5 mM solution (pH 5.0).
To the purified P1 protein diluent (25 μl) obtained in example 1, 100 μl of each chromogenic substrate was added. The reaction was performed at 50° C. for 20 min and stopped with 2 ml saturated solution of sodium borate. Release of p-nitrophenol (absorbance value) was measured at 405 nm.

For assay [2], the system named is recombinant strain GS115-9K-P1-2. As to the kind of experiment: β-xylosidase activity of the recombinant yeast strain on PNP-Xyl. It counts as cell-based, Pichia pastoris. Here is the method:
FIG. 4: Comparison of the recombinant strains GS115-9K-P1-2 and GS115-9K (control) on β-xylosidase activity.
BMGY medium (contains per liter: 10.00 g yeast extract, 20.00 g peptone, 100 mM potassium phosphate buffer, pH 6.0, 10 ml glycerol) and BMMY medium (10 ml glycerol in BMGY medium was replaced with 10 ml methanol as the carbon source) were used as the seed culture and fermentation media respectively for the recombinant yeast. The resistant strain obtained by screening was inoculated into 10 ml seed culture medium and incubated at 30° C., 220 rpm for 18 h. The cultures were washed 2 times by centrifugation and the cell pellet was transferred into 50 ml fermentation medium. Cells were cultured at 30° C., 220 rpm, and 1% methanol was added every 24 h for induction of expression of the recombinant protein. Meanwhile the enzyme activity of the recombinant strain was detected regularly. […]

In assay [3] the test system is recombinant yeast GS115-3.5K-P1-2. Nature of the assay: Hydrolysis of XDB by the recombinant yeast. The format is cell-based, Pichia pastoris. To be noted: 8 mg XDB/ml, 16 mg dry cells/ml, 24 h, 30-55° C., HPLC. Here is the method: The strain was the same as that in Example 6 and the substrate was 7-xylosyl-10-deacetylbaccatin III (XDB). 1.5 ml cell reaction solution contained 16 mg dry cells per milliliter and 8 mg XDB per milliliter. The mixture was incubated in a water shaking bath for 24 h at 30˜55° C.

The test system is the same in assay [4]. Nature of the assay: Hydrolysis of 7-xylosyltaxane mixtures by the recombinant yeast. It counts as cell-based, Pichia pastoris. The following applies: 7-xylosyltaxane mixtures about 8 mg/ml, 24 h, 30-55° C., HPLC. From the text: The recombinant yeast GS115-3.5K-P1-2 (transformant of the recombinant expression plasmid pPIC3.5K-P1-2) obtained in Example 4 was applied in the following bioconversion reaction, wherein the substrates to be converted were 7-xylosyltaxane mixtures, the main components of which included 62.12% of 7-xylosyl-10-deacetyltaxol, 12.75% of 7-xylosyl-10-deacetylcephalomannine, 17.04% of 7-xylosyl-10-deacetyltaxol C, and 8.09% of other components.
The method for culturing the recombinant strain was the same as in Example 5. 16 ml 7-xylosyltaxane mixtures (at a concentration of 100 mg/ml) were added to 200 ml recombinant strain reaction solution with the final concentration of the 7-xylosyltaxane mixtures being about 8 mg/ml (supersaturated). The recombinant yeast introduced with the null vector was taken as the negative control. The solution was mixed by magnetic stirring for 24 h at 30˜55° C. […] The yields of the three main products: 10-deacetyltaxol (DT): 3.27 mg/ml; 10-deacetylcephalomannine (DC): 0.74 mg/ml; and 10-deacetyltaxol C (DTC): 0.92 mg/ml.

The subject of assay [5] is LXYL-P1 (or P1). As to the kind of experiment: XDT conversion by Phenyl Sepharose peak LXYL-P1, thin layer chromatography. The format is biochemical, Lentinula edodes M95.33. The following applies: TLC, FIG. 1B. From the text:
(§1) FIG. 1: Phenyl Sepharose hydrophobic column chromatography of the β-xylosidase-β-glucosidase from the protein extract of the fungus M95.33 (A), and thin layer chromatography (TLC) of XDT conversion (B). • A: P1. active elution peak of LXYL-P1; P2. active elution peak of LXYL-P2. […] XDT (control); 2. DT (control); 3. XDT bioconversion by LXYL-P1; 4. XDT bioconversion by LXYL-P2.
(§2) The fraction eluted in the above step was applied to a Phenyl Sepharose hydrophobic column (1.6 cm×20 cm) equilibrated with 50 mM Tris-HCl buffer (pH 8.0) containing 1 M […]. Elution was performed with Tris-HCl buffer (50 mM, pH8.0) having a linear gradient of 1.0˜0 M (NH4)2SO4 (at a flow rate of 2 ml/min). Fractions having enzymatic activity were collected and dialyzed with Tris-HCl buffer (50 mM, pH8.0).
(§3) Within penal B, 1 was XDT control; 2 was DT control; 3 was XDT conversion by P1; and 4 was XDT conversion by P2.

Assay [6] relates to LXYL-P2 (or P2). As to the kind of experiment: XDT conversion by Phenyl Sepharose peak LXYL-P2, thin layer chromatography. To be noted: TLC, FIG. 1B. It counts as biochemical, Lentinula edodes M95.33.
From the text: as §1, §2, §3

Assay [7] deals with recombinant yeast GS115-9K-P1-2. Nature of the assay: Hydrolysis of 7-xylosyl-10-deacetyltaxol (XDT) by the recombinant yeast. The following applies: XDT 0.625 mg/ml, 12 h, 30-55° C. The format is cell-based, Pichia pastoris. Here is the method: The recombinant yeast GS115-9K-P1-2 (transformant of the recombinant expression plasmid pPIC-9K-P1-2) obtained in example 4 was cultured and induced for 5 days in the manner of Example 4. Cells were centrifuged, harvested and washed, and then was, directly or after lyophilization, suspended with 50 mM acetate buffer or phosphate buffer (65 mg wet cells/ml or 16 mg dry cells/ml, pH 3.5˜7.5), and used as the hydrolytic reaction solution. To 20 ml of the cell reaction solution, 0.5 ml solution of 7-xylosyl-10-deacetyltaxol (XDT) was added with the final concentration of XDT being 0.625 mg/ml. The resultant was incubated in a water shaking bath for 12 h at 30˜55° C.
Extraction was performed with ethyl acetate after the reaction was completed.

The subject of assay [8] is Moraxella sp. (ATCC55475). The following applies: XDT 0.25 mg/ml, wet cells 91.5 mg/ml, 21 h, 28° C.; cited from earlier work.
In assay [9] the test system is Leifsonia shinshuensis DICP 16. To be noted: 1 mg XDT in 2 ml cell suspension, 21 h, 30° C.; cited from earlier work.

For the molecule `O=[N+]([O-])c1ccc(O[C@@H]2OC[C@H](O)[C@H](O)[C@H]2O)cc1` [PNP-Ara, p-nitrophenyl-α-L-arabinopyranoside], in assay [1], the “Relative activity (% control)” value is on record as 0 % control and the OD405 value is 0.000.
Turning to `O=[N+]([O-])c1ccc(O[C@@H]2O[C@H](CO)[C@H](O)[C@H](O)[C@H]2O)cc1` [PNP-Gal, p-nitrophenyl-β-D-galactopyranoside], in assay [1], the “Relative activity (% control)” value is reported as 0 % control and the OD405 value is recorded as 0.000.
On to `O=[N+]([O-])c1ccc(O[C@@H]2O[C@H](CO)[C@@H](O)[C@H](O)[C@H]2O)cc1` [PNP-Glc, p-nitrophenyl-β-D-glucopyranoside], for which, in assay [1], the “hydrolysis of chromogenic substrate by P1 protein (in words)” value is reported as “could hydrolyze”, the “Relative activity (% control)” value was 217 % control and the OD405 value turned out to be 1.615.
For the molecule `O=[N+]([O-])c1ccc(O[C@@H]2OC[C@@H](O)[C@H](O)[C@H]2O)cc1` [PNP-Xyl, p-nitrophenyl-β-D-xylopyranoside], in assay [1], the “hydrolysis of chromogenic substrate by P1 protein (in words)” value is reported as “could hydrolyze”, the “Relative activity (% control)” value is reported as 100 % control and the OD405 value worked out at 0.745. Moreover, the “ability of recombinant strain to hydrolyze the substrate” value in assay [2] (cell suspension, 5 mM PNP-Xyl, 20 min, 30-55° C.) was “has the ability to hydrolyze”. Besides, the “enzymatic activity in supernatant of fermentation broth of recombinant strain” value in assay [2] (supernatant of the fermentation broth) was “no obvious enzymatic activity was detected”.
On to `CC(=O)O[C@@]12CO[C@@H]1C[C@H](O[C@@H]1OC[C@@H](O)[C@H](O)[C@H]1O)[C@@]1(C)C(=O)[C@H](O)C3=C(C)[C@@H](O)C[C@@](O)([C@@H](OC(=O)c4ccccc4)[C@H]21)C3(C)C` [XDB, 7-Xylosyl-10-deacetylbaccatin III], for which the conversion ratio in assay [3] is 86.54%.
Regarding `CC=C(C)C(=O)NC(c1ccccc1)C(O)C(=O)OC1CC2(O)C(OC(=O)c3ccccc3)C3C4(OC(C)=O)COC4CC(OC4OCC(O)C(O)C4O)C3(C)C(=O)C(O)C(=C1C)C2(C)C` (stereo not shown) [XDC, 7-Xylosyl-10-deacetylcephalomannine], the conversion ratio in assay [4] was 93.60%.
On to `CC(=O)O[C@@]12CO[C@@H]1C[C@H](O[C@@H]1OC[C@@H](O)[C@H](O)[C@H]1O)[C@@]1(C)C(=O)[C@H](O)C3=C(C)[C@@H](OC(=O)[C@H](O)[C@@H](NC(=O)c4ccccc4)c4ccccc4)C[C@@](O)([C@@H](OC(=O)c4ccccc4)[C@H]21)C3(C)C` [XDT, 7-Xylosyl-10-deacetyltaxol], for which the “hydrolysis of XDT into DT by P1” value in assay [5] was “could hydrolyze”. Besides, in [6], the “hydrolysis of XDT into DT by P2” value is recorded as “could hydrolyze”. The conversion ratio in assay [7] (HPLC) was 98.80%; in assay [4], 92.45%. In addition, the “substrate transformation by TLC” value in assay [7] (TLC) was “completely transformed”. The “XDT remaining after reaction (HPLC)” value in assay [8] and in [9] was “No XDT was found to be remaining” in each case.
With `CCCCCC(=O)N[C@@H](c1ccccc1)[C@@H](O)C(=O)O[C@H]1C[C@@]2(O)[C@@H](OC(=O)c3ccccc3)[C@@H]3[C@]4(OC(C)=O)CO[C@@H]4C[C@H](O[C@@H]4OC[C@@H](O)[C@H](O)[C@H]4O)[C@@]3(C)C(=O)[C@H](O)C(=C1C)C2(C)C` [XDTC, 7-Xylosyl-10-deacetyltaxol C], the conversion ratio in [4] worked out at 92.00%.
